US9145351B2, “Azole derivatives, methods for producing the same, intermediate thereof, agro-horticultural agents” (KUREHA CORPORATION, priority 2009, dated 2015)

System: Puccinia recondita
Test: Efficacy test against wheat brown rust, 2 mg/L (Experimental Example 8)
Type: in vivo
Parameters: key: 0: No onset; 0.5: Less than 1%; 1% or higher and less than 5%; 2: 5% or higher and less than 10%; 10% or higher and less than 30%; 4: 30% or higher and less than 50%; 50% or higher
Details: sprayed at 1,000 L/ha, concentration printed 0.02 mg/L, 9 to 14 days after inoculation
Method: Onto a wheat plant (variety: […] The sprayed leaves were air-dried, and inoculated with spore suspension of Puccinia recondita (adjusted at 200 spores/vision, […] was added at 60 ppm) by spraying, and kept at 25 degrees C. and a high humidity for 48 hours. Thereafter, the plant was kept in a greenhouse. Nine to 14 days after inoculation, the wheat brown rust lesion degree was investigated, and the protective value was calculated by the following equation. Protective value (%)=(1-lesion degree in sprayed plot/lesion degree in unsprayed plot)×100

C[C@]1(CCl)CC[C@@H](Cc2ccc(F)cc2)[C@]1(O)Cn1cncn1 (racemic) [Compound I-77, (1RS,2SR,5SR)-2-chloromethyl-5-(4-fluorobenzyl)-2-methyl-1-(1H-1,2,4-triazol-1-ylmethyl)cyclopentanol]
degree (wheat brown rust lesion degree): 0
